Assay results published in the supplement of paper PMC10307832.

Key:
Assay in all cases: relative viability (nuclei count vs DMSO), 5 days (fraction); higher = more cells survive
[1] = compound: CC1=CN=C(N=C1C2=CNC(=C2)C(=O)N[C@H](CO)C3=CC(=CC=C3)Cl)NC4=C(C=C(C=C4)F)Cl [VX-11e] + CC(C)C[C@H](NC(=O)[C@H](Cc1ccccc1)NC(=O)c1cnccn1)B(O)O [Bortezomib] (partner 0.002 µM)
Method in brief: (§1)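 Medians of duplicate plates are given as relative viability. That measure is the nuclei count in treated wells divided by the count in vehicle wells. Counts were taken on 4× images of lung cancer cell lines in 1536-well plates, 5 days after pin-tool dosing the day after seeding with one drug alone or a fixed anchor-drug dose plus five library-drug doses (not always all listed) in √10 steps.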

[2] = compound: CC1=CN=C(N=C1C2=CNC(=C2)C(=O)N[C@H](CO)C3=CC(=CC=C3)Cl)NC4=C(C=C(C=C4)F)Cl [VX-11e] + CC(=O)Nc1cccc(-n2c(=O)n(C3CC3)c(=O)c3c(Nc4ccc(I)cc4F)n(C)c(=O)c(C)c32)c1 [Trametinib] (partner 0.02 µM)
Method in brief: as §1

[3] = compound: CC1=CN=C(N=C1C2=CNC(=C2)C(=O)N[C@H](CO)C3=CC(=CC=C3)Cl)NC4=C(C=C(C=C4)F)Cl [VX-11e] + O=C(c1cc(Cc2n[nH]c(=O)c3ccccc23)ccc1F)N1CCN(C(=O)C2CC2)CC1 [Olaparib] (partner 8 µM)
Method in brief: as §1

[4] = compound: CC1=CN=C(N=C1C2=CNC(=C2)C(=O)N[C@H](CO)C3=CC(=CC=C3)Cl)NC4=C(C=C(C=C4)F)Cl [VX-11e] + CS(=O)(=O)N1CCN(Cc2cc3nc(-c4cccc5[nH]ncc45)nc(N4CCOCC4)c3s2)CC1 [Pictilisib] (partner 1 µM)
Method in brief: as §1

Row | Cell Line | relative viability ([1]; first compound 0.04 µM) | relative viability ([1]; first compound 0.1265 µM) | relative viability ([1]; first compound 0.4 µM) | relative viability ([1]; first compound 1.265 µM) | relative viability ([1]; first compound 4 µM) | relative viability ([2]; first compound 0.04 µM) | relative viability ([2]; first compound 0.1265 µM) | relative viability ([2]; first compound 0.4 µM) | relative viability ([2]; first compound 1.265 µM) | relative viability ([2]; first compound 4 µM) | relative viability ([3]; first compound 0.04 µM) | relative viability ([3]; first compound 0.1265 µM) | relative viability ([3]; first compound 0.4 µM) | relative viability ([3]; first compound 1.265 µM) | relative viability ([3]; first compound 4 µM) | relative viability ([4]; first compound 0.04 µM) | relative viability ([4]; first compound 0.1265 µM) | relative viability ([4]; first compound 0.4 µM) | relative viability ([4]; first compound 1.265 µM) | relative viability ([4]; first compound 4 µM)
1 | NCI-H596 | 0.953 | 1 | 0.989 | 0.645 | 0.715 | 0.754 | 0.751 | 0.712 | 0.645 | 0.556 | 0.594 | 0.657 | 0.688 | 0.543 | 0.615 | 0.377 | 0.429 | 0.378 | 0.431 | 0.319
2 | NCI-H647 | 0.892 | 0.964 | 0.584 | 0.491 | 0.477 | 0.51 | 0.358 | 0.211 | 0.163 | 0.217 | 0.627 | 0.591 | 0.617 | 0.422 | 0.303 | 0.32 | 0.26 | 0.122 | 0.381 | 0.132
3 | NCI-H650 | – | 0.692 | 1.23 | – | 0.87 | 1.04 | 0.958 | 0.994 | 0.64 | 0.381 | 0.512 | 0.417 | 0.466 | 0.486 | 0.537 | – | 0.927 | 1.23 | – | 0.819
4 | NCI-H661 | 0.791 | 0.899 | 0.819 | 0.683 | 0.583 | 0.568 | 0.542 | 0.476 | 0.506 | 0.376 | 0.779 | 0.777 | 0.719 | 0.724 | 0.61 | 0.324 | 0.462 | 0.4 | 0.403 | 0.363
5 | NCI-H727 | 0.686 | 0.68 | 0.519 | 0.513 | 0.29 | 0.415 | 0.374 | 0.379 | 0.365 | 0.346 | 0.626 | 0.593 | 0.747 | 0.678 | 0.457 | 0.243 | 0.451 | 0.314 | 0.238 | 0.173
6 | NCI-H838 | 0.985 | 0.703 | 0.608 | 0.527 | 0.515 | 0.457 | 0.505 | 0.513 | 0.484 | 0.455 | 0.785 | 0.802 | 0.702 | 0.738 | 0.671 | 0.333 | 0.435 | 0.266 | 0.424 | 0.292
7 | NCI-H1355 | 1.01 | 1.17 | 0.614 | 1.11 | 0.763 | 0.406 | 0.411 | 0.372 | 0.33 | 0.221 | 0.735 | 0.759 | 0.655 | 0.554 | 0.395 | 0.263 | 0.194 | 0.166 | 0.3 | 0.232
